Source: the NIST ThermoML archive (doi:10.1016/j.jct.2008.06.009)
Numbers after ± are expanded uncertainties.

Settings: Liquid, Bellows volumetry

N [ammonia]
mass density [kg/m3]
Settings | 450 K | 500 K
30000 kPa | 355.3 ± 1.7 | –
40000 kPa | 403.7 ± 1.9 | –
50000 kPa | 433.4 ± 2.1 | 350.9 ± 1.7
60000 kPa | 455.2 ± 2.2 | 384.9 ± 1.8
70000 kPa | 472.6 ± 2.3 | 410.1 ± 2
80000 kPa | 487.4 ± 2.3 | 430.2 ± 2.1
90000 kPa | 500.2 ± 2.4 | 446.9 ± 2.1
100000 kPa | 511.7 ± 2.5 | 461.5 ± 2.2
120000 kPa | 531.4 ± 2.6 | 485.8 ± 2.3
140000 kPa | 548.2 ± 2.6 | 505.9 ± 2.4
160000 kPa | 563.1 ± 2.7 | 523.1 ± 2.5
180000 kPa | 576.3 ± 2.8 | 538.3 ± 2.6
200000 kPa | 588.2 ± 2.8 | 551.9 ± 2.6
